In the supplement of paper PMC4862054:

How the values were obtained:
Conditions in all cases: incubation time: 72 h
CAL-120 [1] = test: normalised response (% of control), CellTox Green; higher = less cell death (100 = DMSO, 0 = benzethonium chloride kill control)
How it was run: (§1)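 Each entry is the normalised signal at a single concentration within a series. The series comprised 5 concentrations in 10-fold steps over a compound-specific 10,000-fold range, placed in 384-well plates into which breast cancer cell lines were seeded as 20 µl suspension and incubated 72 h. CellTox Green (485/520 nm) fluorescence and then CellTiter-Glo luminescence were read, with signals normalised per plate to 0.1 % DMSO (100) and a positive kill control (0).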

MDA-MB-468 [2] = test: as above
How it was run: as §1

HCC1143 [3] = test: as above
How it was run: as §1

MDA-MB-453 [4] = test: as above
How it was run: as §1

CAL-85-1 [5] = test: as above
How it was run: as §1

DU-4475 [6] = test: as above
How it was run: as §1

HDQ-P1 [7] = test: as above
How it was run: as §1

MCF-10A [8] = test: as above
How it was run: as §1

HCC1599 [9] = test: as above
How it was run: as §1

CAL-148 [10] = test: as above
How it was run: as §1

HCC1937 [11] = test: as above
How it was run: as §1

MDA-MB-436 [12] = test: as above
How it was run: as §1

BT-474 [13] = test: as above
How it was run: as §1

Hs578T [14] = test: as above
How it was run: as §1

BT-549 [15] = test: as above
How it was run: as §1

MDA-MB-231 [16] = test: as above
How it was run: as §1

CAL-51 [17] = test: as above
How it was run: as §1

MFM-223 [18] = test: as above
How it was run: as §1

CAL-120 [19] = test: normalised response (% of control), CellTiter-Glo; higher = more viable cells (100 = DMSO, 0 = benzethonium chloride kill control)
How it was run: as §1

MDA-MB-468 [20] = test: as above
How it was run: as §1

HCC1143 [21] = test: as above
How it was run: as §1

MDA-MB-453 [22] = test: as above
How it was run: as §1

CAL-85-1 [23] = test: as above
How it was run: as §1

DU-4475 [24] = test: as above
How it was run: as §1

HDQ-P1 [25] = test: as above
How it was run: as §1

MCF-10A [26] = test: as above
How it was run: as §1

HCC1599 [27] = test: as above
How it was run: as §1

CAL-148 [28] = test: as above
How it was run: as §1

HCC1937 [29] = test: as above
How it was run: as §1

MDA-MB-436 [30] = test: as above
How it was run: as §1

BT-474 [31] = test: as above
How it was run: as §1

SK-BR-3 = test: as above
How it was run: as §1

Hs578T [32] = test: as above
How it was run: as §1

BT-549 [33] = test: as above
How it was run: as §1

MDA-MB-231 [34] = test: as above
How it was run: as §1

CAL-51 [35] = test: as above
How it was run: as §1

MFM-223 [36] = test: as above
How it was run: as §1

Row | Compound | normalised response (CAL-120 [1]) [%] | normalised response (MDA-MB-468 [2]) [%] | normalised response (HCC1143 [3]) [%] | normalised response (MDA-MB-453 [4]) [%] | normalised response (CAL-85-1 [5]) [%] | normalised response (DU-4475 [6]) [%] | normalised response (HDQ-P1 [7]) [%] | normalised response (MCF-10A [8]) [%] | normalised response (HCC1599 [9]) [%] | normalised response (CAL-148 [10]) [%] | normalised response (HCC1937 [11]) [%] | normalised response (MDA-MB-436 [12]) [%] | normalised response (BT-474 [13]) [%] | normalised response (Hs578T [14]) [%] | normalised response (BT-549 [15]) [%] | normalised response (MDA-MB-231 [16]) [%] | normalised response (CAL-51 [17]) [%] | normalised response (MFM-223 [18]) [%] | normalised response (CAL-120 [19]) [%] | normalised response (MDA-MB-468 [20]) [%] | normalised response (HCC1143 [21]) [%] | normalised response (MDA-MB-453 [22]) [%] | normalised response (CAL-85-1 [23]) [%] | normalised response (DU-4475 [24]) [%] | normalised response (HDQ-P1 [25]) [%] | normalised response (MCF-10A [26]) [%] | normalised response (HCC1599 [27]) [%] | normalised response (CAL-148 [28]) [%] | normalised response (HCC1937 [29]) [%] | normalised response (MDA-MB-436 [30]) [%] | normalised response (BT-474 [31]) [%] | normalised response (SK-BR-3) [%] | normalised response (Hs578T [32]) [%] | normalised response (BT-549 [33]) [%] | normalised response (MDA-MB-231 [34]) [%] | normalised response (CAL-51 [35]) [%] | normalised response (MFM-223 [36]) [%]
1 | COc1cc(Nc2ncc(F)c(Nc3ccc4c(n3)N(COP(=O)(O)O)C(=O)C(C)(C)O4)n2)cc(OC)c1OC [Fostamatinib] (25 nM) | 98.4 | 118 | 100 | 105 | 106 | 99.6 | 104 | 80.9 | 94.1 | 99.6 | 102 | 62.8 | 98.7 | 101 | 60.2 | 92.3 | 95 | 78.7 | 104 | 94.7 | 101 | 93.7 | 98.5 | 95.6 | 108 | 100 | 96 | 88.7 | 99.5 | 99.7 | 97.3 | 91.2 | 93.4 | 104 | 101 | 83 | 91.2
2 | CC/C(=C(\c1ccccc1)c1ccc(OCCN(C)C)cc1)c1ccccc1 [Tamoxifen] (100 nM) | 103 | 71.4 | 113 | 100 | 105 | 105 | 87.8 | 106 | 103 | 106 | 91.9 | 74.1 | 100 | 97.7 | 99.3 | 91.3 | 115 | 103 | 110 | 98 | 108 | 102 | 99.9 | 105 | 105 | 107 | 101 | 110 | 100 | 99.1 | 97.9 | 99.4 | 105 | 99.2 | 107 | 91.5 | 103
3 | O=C(O)CC[C@H]1CC[C@@](c2cc(F)ccc2F)(S(=O)(=O)c2ccc(Cl)cc2)CC1 [MK-0752] (10 nM) | 107 | 108 | 120 | 107 | 102 | 108 | 105 | 109 | 122 | 101 | 125 | 99.9 | 104 | 56.9 | 92.4 | 122 | 103 | 85.8 | 106 | 96.1 | 105 | 114 | 97.2 | 102 | 99.3 | 105 | 91.8 | 108 | 98.8 | 99.7 | 105 | 105 | 106 | 93.8 | 109 | 101 | 106
4 | CC(C)NC[C@@H](C(=O)N1CCN(c2ncnc3c2[C@H](C)C[C@H]3O)CC1)c1ccc(Cl)cc1 [GDC-0068] (100 nM) | 104 | 125 | 93.9 | 107 | 108 | 102 | 87 | 106 | 94.8 | 82.4 | 104 | 85 | 96.9 | 97.8 | 98.9 | 97.8 | 106 | 102 | 104 | 84 | 100 | 84.2 | 98.3 | 98.8 | 89.2 | 111 | 93.9 | 62.8 | 90.9 | 97.3 | 102 | 95.1 | 102 | 94.2 | 104 | 80 | 68.4
